Test results published in paper PMC5046105, “Improved affinity at the cost of decreased specificity: a recurring theme in PDZ-peptide interactions” (Scientific Reports, 2016).
Ends that are not written are not given here.

Columns and labels:
PDZØ9 = test: Proteomic peptide-phage display (ProP-PD) selection, PDZØ9 as bait; parameters: species or system human; details: number of this peptide among 76 sequenced binding clones after round three of ProP-PD selection
Experimental: (§1) The peptide-phage library used in the selections consisted of 50,549 heptapeptides representing the C-terminal sequences of the human proteome, fused to the C-terminus of the major coat protein pVIII of the M13 phage. This library was developed and successfully used for the rapid isolation of potential cellular PDZ domain targets, as previously reported.
(§2) Individual binding clones were isolated and sequenced (see Table 1).
(§3) Peptide-phage selections against PDZØ9 and pWT PDZ2 were performed with a previously developed library of 50549 heptapeptides, representing all of the C-terminal sequences in the human proteome. Peptides are fused to the C-terminus of the gene-8 major coat protein of M13 phage and hereby referred to as the naïve peptide library. Each of the two selections was performed twice. First, the two lipoyl-PDZ proteins were used to coat 96-well Maxisorp microtiter plates (NUNC) by incubation overnight at 4 °C (15 μg of protein in 100 μl of PBS per well). For the first round of selection, two wells were used for each PDZ, whereas a single well was used for the following selections. In parallel, wells were coated with lipoyl domain alone in order to remove nonspecific binders by a preselection step. The following day, wells were blocked with 200 μl of 0.5% BSA in PBS for 1 h at 4 °C, and washed four times with PT buffer [PBS, 0.05% Tween-20] before addition of phages. Phage pools representing the naïve peptide library were diluted 50-fold in PBS, precipitated with PEG/NaCl [4% PEG-8000 and 0.5 M NaCl] by incubation for 10 min on ice, pelleted by centrifugation (10 min, 16000 × g), and resuspended in PBS. For each selection round, 100 μl of resuspended phage was added to the preselection wells and incubated for 1 h at 4 °C before transfer to the target wells in which they were incubated for 2 h at 4 °C. The wells were washed five times with PT buffer and bound phages were eluted by direct infection of bacteria through the addition of 100 μl log-phase Escherichia coli Omnimax (Invitrogen) in 2TY, followed by 30 min incubation at 37 °C with shaking. Phage production was initiated by the addition of M13K07 helper phage (New England Biolabs) to a final concentration of 10^10 phage/ml and continued incubation at 37 °C for 45 min. The cultures were then transferred to 10 ml 2TY containing 100 μg/ml carbenicillin, 30 μg/ml kanamycin, and 1 mM IPTG, and shaken overnight at 37 °C. The bacteria were pelleted by centrifugation (10 min, 5300 × g), and the phage-containing supernatant was transferred to a new tube in which phages were precipitated with PEG/NaCl as described above, pelleted by centrifugation (15 min, 5300 × g), and resuspended in 1 ml of PBS. The resuspended phages, hereby-denoted Øout, were then used for the next round of selection. A total of five rounds were carried out and the enrichment of phages specific for the target was monitored by analysing aliquots of Øout in a phage ELISA performed as described below. For each of the five rounds of the respective selection, 10 μg of target protein and lipoyl domain were individually coated in parallel wells using the same type of plate, procedure, and blocking the following day, as described for the selection rounds above. When the 200 μl of blocking solution had been aspirated, 100 μl of resuspended phage was added and incubated for 30 min at 4 °C.

pWT PDZ2 = test: Proteomic peptide-phage display (ProP-PD) selection, pWT PDZ2 as bait; parameters: species or system human; details: number of this peptide among 71 sequenced binding clones after round three of ProP-PD selection
Experimental: as §1, §2, §3

[1] = biological target: Pseudo wild type SAP97 PDZ2 (second PDZ domain of synapse associated protein 97, I342W/C378A) (human) (UniProt Q12959); test: stopped-flow spectroscopy
pWT PDZ2 K392M (human) = pWT PDZ2 K392M (human) (UniProt Q12959); test: stopped-flow spectroscopy
[2] = biological target: PDZØ9, engineered variant (L391F/K392M) of pWT SAP97 PDZ2 (human) (UniProt Q12959); test: stopped-flow spectroscopy
pWT PDZ2 L391F (human) [3] = biological target: pWT PDZ2 L391F (human) (UniProt Q12959); test: stopped-flow spectroscopy
pWT PDZ2 L391F (human) [4] = biological target: pWT PDZ2 L391F (human) (UniProt Q12959); test: ITC; PGKETQL peptide titrated into pWT PDZ2 L391F; iTC200, 10 °C, 50 mM potassium phosphate, pH 7.5; 1:1 model; duplicate titrations, average parameters

Chain of pWT PDZ2 L391F (human) (Q12959 311-407, stated change not applied): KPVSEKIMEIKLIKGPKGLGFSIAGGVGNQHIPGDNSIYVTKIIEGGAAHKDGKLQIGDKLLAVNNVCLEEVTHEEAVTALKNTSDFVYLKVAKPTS
Chain of Pseudo wild type SAP97 PDZ2 (second PDZ domain of synapse associated protein 97, I342W/C378A) (human) (Q12959 311-407, stated change not applied): as the sequence (Q12959 311-407, stated change not applied) above
Chain of PDZØ9, engineered variant (L391F/K392M) of pWT SAP97 PDZ2 (human) (Q12959 311-407, stated change not applied): as the sequence (Q12959 311-407, stated change not applied) above
Chain of pWT PDZ2 K392M (human) (Q12959 311-407, stated change not applied): as the sequence (Q12959 311-407, stated change not applied) above

Row | Molecule | Prevalence, PDZØ9 (76) (PDZØ9) | Prevalence, pWT PDZ2 (71) (pWT PDZ2) | also measured
1 | AGKTTIL | 1 | – | –
2 | AGRETTV | – | 1 | –
3 | IKTETTV | 1 | 7 | –
4 | KGTETTL | 1 | – | –
5 | KIKETTV | 1 | 3 | –
6 | RAISTDV | 2 | – | –
7 | WKHETTV | 4 | 5 | –
8 | WKNETTV | 1 | 1 | –
9 | WKSETTV | 1 | 1 | –
10 | YKKETPL | 1 | – | –
11 | Ac-PGKETQL [PGKETQL peptide (C-terminus of SO1C1_HUMAN)] | – | – | koff [1]: 51 s⁻¹; kon [1]: 1.8e+07 M⁻¹ s⁻¹; koff (pWT PDZ2 K392M (human)): 48 s⁻¹; kon (pWT PDZ2 K392M (human)): 1.8e+07 M⁻¹ s⁻¹; koff [2]: 3.9 s⁻¹; kon [2]: 1.6e+07 M⁻¹ s⁻¹; koff (pWT PDZ2 L391F (human) [3]): 5 s⁻¹; kon (pWT PDZ2 L391F (human) [3]): 2e+07 M⁻¹ s⁻¹; Kd (pWT PDZ2 L391F (human) [4]): 310 nM; stoichiometry N (pWT PDZ2 L391F (human) [4]): 0.76
